Values quoted from earlier work as cited in US5385922A, “Thiazolidine derivatives” (Cedona Pharmaceuticals B.V., priority 1990, dated 1995).

Legend:
[1] = system: rat aorta contracted using phenylephrine; details: cited from earlier work
[2] = system: angiotensin converting enzyme (ACE); details: literature, WO 89/12627, cited from earlier work

SMILES: C[C@H](CSN=O)C(=O)N1CCC[C@H]1C(=O)O [S-ni-trosocaptopril]
- IC50 ([1]; rat aorta contracted using phenylephrine, read-out: relaxing effect via the NO portion, IC50): ~100 nM
- relaxing concentration relative to ACE-inhibiting concentration ([1]; relaxation IC50 vs ACE-inhibition IC50): about 100 times higher
- ACE-inhibiting effect compared with captopril (in words) [2]: comparable to that of captopril
- IC50 ([2]; read-out: ACE-inhibiting effect IC50): ~1 nM
